Tested on: Human pancreatic cancer cells PC1.0
Assay: cells
Settings: light or radiation study
Protocol: Human pancreatic cancer cells PC1.0 were plated in 96 well culture plate at 1000 cells/well and cultured overnight. Then, methylene blue (MB) or SMA-methylene blue (SMA-MB) micelle was added to the cultured cells above, and allowed to culture another 48 hours. Light irradiation was carried out using tungsten xenon lamp at 15 cm distance from the cell surface for 20 min. Then, the survival rate of the cells was quantified by MTT Method.

CN(C)c1ccc2nc3ccc(=[N+](C)C)cc-3sc2c1 [Methylene blue, methylene blue]
IC50: 500 nM | IC50 (48 h): 4500 nM

Source: patent US10946109B2, “Polymer-type fluorescent molecule probe” (HIROSHI MAEDA, priority 2011, dated 2021)
